The term EC50 denotes the concentration at which the effect is half-maximal. A word on the IC50: it is the concentration at which inhibition is half-maximal.

The subject of one series is ERα. The arrangement: method as in PMID 27529700. The following applies: read-out: binding affinity to ERα, EC50; cited from earlier work.
Series [1] concerns MCF-7 breast cancer cells. The experiment in a line: MCF-7 cell growth inhibition. The following applies: Homo sapiens, MCF7, 120 h; 5 days treatment, cell count vs DMSO. Format: cell-based. As to the method:
At the end of treatment, surviving cells were counted and normalized to control cells that were treated with vehicle (DMSO) only. (B) IC50 values were obtained by deriving logarithmic curves from the %cell survival vs. treatment dose plot.

A further series deals with T1, ERα LBD (Homo sapiens, UniProt P03372).
T1 construct: using 7 nM GST-tagged ERα LBD (Invitrogen); purchased Invitrogen
T1 sequence (P03372 311-547 limits assumed): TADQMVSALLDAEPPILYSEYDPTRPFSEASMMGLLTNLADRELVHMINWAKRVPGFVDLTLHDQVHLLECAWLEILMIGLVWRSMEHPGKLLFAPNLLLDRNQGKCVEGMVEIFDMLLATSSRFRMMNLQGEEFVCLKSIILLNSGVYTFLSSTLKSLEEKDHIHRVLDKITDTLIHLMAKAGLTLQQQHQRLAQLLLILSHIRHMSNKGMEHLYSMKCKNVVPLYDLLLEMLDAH
Description: MARCoNI ERα-coregulator interaction peptide microarray. Format: biochemical. To be noted: 10 μM compound, 7 nM GST-tagged ERα LBD, vs apo. On the procedure: The modulation of ERα-coregulator interaction by compound was analyzed using MARCoNI (Micro Array Assay for Real-time Coregulator Nuclear receptor Interaction) as described previously using 7 nM GST-tagged ERα LBD (Invitrogen).
Each condition is measured using 3 technical replicates (arrays). After incubation, unbound receptor is removed by washing, and a tiff image of each array is acquired using a CCD camera and receptor binding to each peptide on the array is quantified using dedicated software. For each condition, the three technical replicates are used to calculate mean and S.E.M. ERα binding as well as compound-induced log-fold modulation vs. control for each individual motif. Significance of the modulation is assessed using Student's t-Test.

On the set-up of series [2]: method as in PMID 27529700. To be noted: after ZB716 dosing; cited from earlier work.
For series [3], the system named is T47D/Y537S breast cancer cells. The experiment in a line: T47D/Y537S ESR1 mutant cell growth inhibition. Format: cell-based. The following applies: Homo sapiens, 120 h, 5 days treatment. An excerpt: Wild-type ESR1, the Y537S ESR1 mutant were fused to a FLAG tag at their C-termini and cloned into the lentiviral vector pFLRu-FH [30]. Y537S mutation was first introduced into ESR1 using the QuikChange II XL Site-Directed Mutagenesis Kit (Agilent) with an ESR1-encoding plasmid (Accession number NM_000125.1, GeneCopoeia Inc.) as the template. […] To make lentiviral particles, pFLRu-FH vector DNAs (encoding ESR1(wt) and ESR1(Y537S)) were cotransfected with the packaging plasmids into HEK293T cells using Fugene 6 (Roche). At 48 hours post transfection, culture media containing different viruses were added to T47D cells in the presence of polybrene followed by 3-day puromycin selection for stable expression.
Viable cell numbers were counted with a Z Series Coulter Counter instrument (Beckman-Coulter) following manufacturer's instructions. […] IC50 values were obtained from dose-response curves for all treatments.

Series [4] can be described thus: Drug concentrations in final plasma and tumor tissue of MCF-7 xenograft mice. Type of series: in vivo. The following applies: female, Nu/Nu, mouse. As to the method:
The plasma samples of 100 μL each were processed for analysis by a TSQ UPLC-MS/MS system. Aliquots of 10 μL of 0.5 ng/μl E-Tamoxifen-2C^13, N^15, 200 μL methanol, and 400 μl chloroform were added to the plasma in a 1.5 mL centrifuge tube in sequence. The sample was vortexed and stored at −20°C for 4 hours, followed by sonication in a Branson B3510MT Ultrasonic Cleaners for 30 min and centrifuged at 12000 RPM on a Heraeus Fresco 21 Refrigerated Micro Centrifuge from Thermo Fisher Scientific for 10 min. The supernatant was dried with a nitrogen gas flow and suspended in 100 μL methanol. Aliquots of 10 μL of the above processed samples were injected into a TSQ Vantage mass spectrometer connected with a heated electrospray ionization probe and a Dionex Ultimat 3000 UHPLC with a Hypersil gold column (50×2.1 mm). The probe setting and front mass spectrometer setting were controlled as follows: spray voltage 3200 voltage, auxiliary gas 10psi, vaporizer temperature 365°C, capillary temperature 300°C, sheath gas 30psi, S-lens RF amplitude 51 voltage. The flow gradient was started with initial 30% mobile phase A of water with 0.05% formic acid to 1 min, to 100% mobile phase B of acetonitrile with 0.05% formic acid at 8 min, and return to 30% mobile phase A at 13 min.

Where two headings read alike, the source gives them in different places.

In the case of `C[C@]12CC[C@@H]3c4ccc(O)cc4C[C@@H](CCCCCCCCC[S+]([O-])CCCC(F)(F)C(F)(F)F)[C@H]3[C@@H]1CC[C@@H]2O` (some centres unmarked) [fulvestrant, reference compound], the EC50 with ERα is […]. Moreover, the IC50 in series [1] is 1.5 nM; in series [3], 32 nM. In addition, the “modulation of ERα interaction with coactivator motifs (NCOA family)” value at ERα LBD is “strongly reduced”. The “share of total active ingredients in mice plasma (active metabolite of ZB716)” value in series [2] is on record as 10-20%. For the same compound, the concentration at 3 weeks in series [4] (plasma, subcutaneous, 200 mg/kg/wk, read-out: Average concentration in final plasma) is 27.9 ng/mL; in series [4] (plasma, treatment ZB716 10 mg/kg daily PO, end of study, read-out: Average concentration in final plasma), 18.4 ng/mL; in series [4] (plasma, treatment ZB716 30 mg/kg daily PO, end of study, read-out: Average concentration in final plasma) it was 145 ng/mL; in series [4] (tumor tissue, subcutaneous, 200 mg/kg/wk, read-out: Average concentration in tumor tissue), 160 ng/mL; in series [4] (tumor tissue, treatment ZB716 10 mg/kg daily PO, end of study, read-out: Average concentration in tumor tissue), 67.9 ng/mL; in series [4] (tumor tissue, treatment ZB716 30 mg/kg daily PO, end of study, read-out: Average concentration in tumor tissue), 118 ng/mL.

The record behind these values is PMC5805526, “ZB716, a steroidal selective estrogen receptor degrader (SERD), is orally efficacious in blocking tumor growth in mouse xenograft models” (Oncotarget, 2018).
